Counter-ions that a name gives are not always drawn. Like-named read-outs stand apart in the source and are kept apart here.

In this assay the target is acetyl cholinesterase (AChE) (Homo sapiens, UniProt P22303). Put plainly: Inhibition constants: inhibition of acetyl cholinesterase (AChE), acetyl thiocholine and Ellman's reagent. In kind it is biochemical. As to the method:
Inhibition constants were measured in 50 mM Tris pH=8.0. Enzyme and inhibitor were incubated at ambient temperature for 20 minutes. Substrate for the enzyme was then added and the rate of hydrolysis was followed spectrophotometrically. The substrate for PLE and RLE was o-nitrophenylbutyrate and for AChE was acetyl thiocholine and Ellman's reagent.
A general note: In Ellman's method for cholinesterases, released thiocholine reacts with DTNB.

Chain of acetyl cholinesterase (AChE) (P22303 32-614): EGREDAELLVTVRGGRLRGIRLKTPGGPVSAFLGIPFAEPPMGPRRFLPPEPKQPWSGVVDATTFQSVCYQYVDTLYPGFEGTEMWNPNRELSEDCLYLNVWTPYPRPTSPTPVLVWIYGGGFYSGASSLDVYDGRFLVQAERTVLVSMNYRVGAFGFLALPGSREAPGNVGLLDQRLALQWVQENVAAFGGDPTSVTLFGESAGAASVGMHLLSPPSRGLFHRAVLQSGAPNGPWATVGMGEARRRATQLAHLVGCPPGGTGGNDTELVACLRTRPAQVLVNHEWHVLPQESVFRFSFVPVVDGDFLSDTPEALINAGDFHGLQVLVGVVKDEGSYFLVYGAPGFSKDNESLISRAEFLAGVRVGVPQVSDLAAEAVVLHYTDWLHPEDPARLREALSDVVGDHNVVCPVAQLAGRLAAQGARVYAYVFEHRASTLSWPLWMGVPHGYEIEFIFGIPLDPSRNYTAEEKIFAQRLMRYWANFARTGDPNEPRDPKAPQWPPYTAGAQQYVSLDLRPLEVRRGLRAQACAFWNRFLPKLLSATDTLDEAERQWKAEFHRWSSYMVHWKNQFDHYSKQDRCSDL

One may read the Ki as a dissociation constant, usually derived from enzyme kinetics or from competition with a known ligand. Take `C[N+](C)(CCO)CCCC(=O)C(F)(F)F` [N,N-dimethyl-N-[2-(hydroxy)ethyl]-5,5,5-trifluoro-4-oxopentanaminium, hydroxide salt]: where the note is “AChE, 50 mM Tris pH=8.0, 20 minutes incubation at ambient temperature, acetyl thiocholine and Ellman's reagent, read-out: Ki (M)* (Esterase)”, the inhibition constant (Ki) came to 5e-09 M.

`C[N+](C)(CCCCO)CCCC(=O)C(F)(F)F` [N,N-dimethyl-N-[4-(hydroxy)butyl] 5,5,5-trifluoro-4-oxopentanaminium, hydroxide salt] returned an inhibition constant (Ki) of 6.5e-08 M.

(Values after patent US4962024A, “Signal enhancement in assay for an enzyme” (priority 1988, dated 1990).)
